Experimental data reported in PMC10635799, “Analogs of FTY720 inhibit TRPM7 but not S1PRs and exert multimodal anti-inflammatory effects” (The Journal of General Physiology, 2023).
Where two headings read alike, the source gives them in different places.

Legend:
BMDMs = test: LPS-induced inflammation assay in WT and TRPM7 KO BMDMs (qRT-PCR); format: cell-based, mice
Method: All cells were cultured at 37°C with 5% CO2. HEK 293T cells (CRL-3216; ATCC), HeLa cells (CCL-2; ATCC), RAW 264.7 macrophages (TIB-71; ATCC), and BV-2 microglial cells (ABC-TC212S; AcceGen Biotech) were cultured in DMEM (11995065; Gibco) with 10% fetal bovine serum (FBS; Avantor Seradigm Premium Grade Fetal Bovine Serum 97068-085). FBS was heat-inactivated prior to use at 56°C for 30 min. BMDMs were isolated and cultured as previously described ([Schappe et al., 2018]) and differentiated into mature macrophages over 7 d through culture in BMDM media (RPMI 1640, 10% FBS, and 20% L-929 culture supernatant; Gibco).
RAW 264.7 macrophages or BMDMs were seeded at a density of 250,000 cells per well into a 12-well tissue culture plate in 1 ml of media and left to incubate overnight. The indicated drug or vehicle control was added to each well, and the plate was agitated and left to incubate for 10 min. The cells were then treated with LPS (1 µg/ml) or an equivalent volume of PBS, agitated, and left to incubate for 3 h. Cells were washed with PBS and then RNA isolation was performed using RNeasy Plus Micro Kit (74134; Qiagen). cDNA was produced using GoScript Reverse Transcriptase (A5004; Promega) and a quantitative PCR was performed using SensiFast SYBR (98020; Bioline) and Bio-Rad CFX Connect thermocycler. Each datum represents an individual, biological replicate that is the mean of duplicate technical replicates. Fold-changes are all reported relative to untreated controls for each experiment and were calculated using the ∆∆Ct method, with β2-microglobulin used as the housekeeping gene for each sample. The experiment was performed similarly with BV-2 microglia and alveolar macrophages, except that cells were plated at a density of 100,000 cells per well into a 24-well tissue culture plate with 1 ml of media per well.

[1] = Whole-blood, brain and lung drug levels by LC-MS/MS in the sublethal LPS peritonitis model; format: in vivo; settings: for Kp at 4 h / concentration at 4 h: both sexes, C57BL/6J, mouse, intraperitoneal
Method: (§1) 12-wk-old WT C57BL/6J mice were purchased from Jackson Laboratory (Strain #000664). An equal number of male and female mice were randomly assigned to each treatment group. All studies were conducted according to a protocol approved by the University of Virginia Animal Care and Use Committee. Mice were socially housed with littermate controls and provided with free access to a standard chow diet and water. Baseline weights were taken <1 h prior to the experiment for individual dose calculations. For the sublethal model, mice were injected intraperitoneally with LPS (1 mg/kg), VPC01091.4 (30 mg/kg), both LPS and VPC01091.4, or vehicle alone (20% 2-hydroxypropyl-β-cyclodextrin in PBS). The volume injected was 200 μl and solutions were sterile-filtered (0.45 µm) prior to use. […] Mice were euthanized at 4 h, then blood was collected via cardiac puncture and anticoagulated with K2EDTA. […] The lungs were dissected, coarsely homogenized, and partitioned into separate samples for RNA extraction and mass spectrometry analysis. Samples to be used for RNA were stored at −20°C in RNAlater Stabilization Solution (AM7021; Thermo Fisher Scientific) while samples for use in mass spectrometry were flash-frozen in liquid nitrogen. Whole brains were physically dissected, coarsely homogenized, and stored for later processing as with the lung tissue. 10 μl of each whole blood sample was reserved for mass spectrometry analysis, 15 μl was used to obtain lymphocyte counts with a Hematology Analyzer (Heska Element HT5), and the remainder was used to produce plasma through centrifugation at 2,000 × g for 15 min at 4°C. Plasma cytokines were then measured using a multiplex mouse proinflammatory cytokine panel performed by the University of Virginia Flow Cytometry Core (RRID: SCR_017829). Cytokine values beyond the limit of detection (LOD) are reported as the LOD value. Tissue RNA was isolated from preserved samples using 30 min of automated homogenization at 30 Hz with 5-mm ball-bearings in RLT Plus Lysis Buffer (TissueLyser II; Qiagen); RNA was then isolated using a RNeasy Plus Micro Kit (74134; Qiagen). Whole-tissue cytokine expression changes were then measured using qRT-PCR as with ex vivo cell culture experiments. For the lethal dose model, mice were injected with LPS (25 mg/kg), both LPS and VPC01091.4, or vehicle alone (20% 2-hydroxypropyl-β-cyclodextrin in PBS). Symptoms were scored according to a standardized clinical score sheet that assessed conjunctivitis, lethargy, degradation in hair grooming behavior, stool changes, and facial grimace (Table 1). Mice that lost >20% of their starting body weight or received a clinical score of 8 or greater were euthanized.
The sample preparation method was adapted from that published by [Shaner et al. (2009)]. Specifically, homogenized tissue (100 μl) was added to a mixture of methanol and chloroform (2 ml, 3:1, LCMS grade) and incubated at 48°C for 16 h. The mixture was cooled to room temperature, an alcoholic KOH solution (200 μl, 1 M in LCMS-grade methanol) was added, and the mixture was further incubated at 37°C for 2 h. The samples were neutralized with glacial acetic acid (20 μl) and centrifuged at 4°C for 10 min at 10,000 × g. The supernatant fluid was transferred to a glass vial and dried under a stream of nitrogen. The material was dissolved in LCMS grade methanol (500 μl), vortexed, and centrifuged at 4°C for 10 min at 10,000 × g. The supernatant fluid was transferred to LC vials for analysis by LC-MS/MS.
Analyses were performed using a tandem quadrupole mass spectrometer (Xevo TQ-S micro; Waters) coupled to a UPLC (Waters Acquity h-class+) inlet equipped with a reverse phase C18 UPLC column (BEH C-18 1.7 µm bead size, 2.1 × 50 mm; Waters). The method used is a modification of that published by [Frej et al. (2015)]. Specifically, the LC flow rate was set at 0.4 ml/min and the column temperature was 60°C. […]

[2] = tested on: LPS-induced endotoxemia in mice; test: Sublethal LPS-induced peritonitis (endotoxemia) mouse model; format: in vivo
Method: as §1

[3] = LPS 1 mg/kg + 30 mg/kg i.p., 4 h, vs LPS
[4] = whole-brain qRT-PCR, LPS 1 mg/kg + 30 mg/kg i.p., 4 h, vs LPS

With CCCCCCCCc1ccc([C@@H]2CC[C@@](N)(CO)C2)cc1 [VPC01091.4, ((1S,3R)-1-amino-3-(4-octylphenyl)cyclopentyl)methanol] the “LPS-induced IL-1β expression in TRPM7 KO BMDMs” value (BMDMs; 10 µM VPC4, 10 µM AAL-149, 5 µM FTY720, 30 μM NS8593) was “able to suppress”, the “LPS-induced IL-6 expression in Trpm7 KO BMDMs” value (BMDMs; 10 µM, effect on top of genetic deletion) was “additive effect” and the Kp at 4 h ([1]; brain / whole blood, 30 mg/kg i.p., VPC4 + LPS group, read-out: Mean brain level relative to mean blood level) was 9.35. The Kp at 4 h ([1]; brain / whole blood, 30 mg/kg, 30 mg/kg i.p., VPC4 group, read-out: Mean brain level relative to mean blood level) was 8.97, the concentration at 4 h ([1]; brain, 30 mg/kg i.p., VPC4 + LPS group, read-out: Mean brain concentration) was 162 µM and the concentration at 4 h ([1]; brain, 30 mg/kg i.p., VPC4 group, read-out: Mean brain concentration) was 142 µM. For the same molecule, the Kp at 4 h ([1]; lung / whole blood, 30 mg/kg i.p., VPC4 + LPS group, read-out: Mean lung level relative to mean blood level) was 33.2, the Kp at 4 h ([1]; lung / whole blood, 30 mg/kg, 30 mg/kg i.p., VPC4 group, read-out: Mean lung level relative to mean blood level) was 31.1 and the Kp at 4 h ([1]; lung / whole blood, 30 mg/kg, mice that received VPC4, 30 mg/kg i.p., read-out: Lung levels relative to blood) was 32. It also gave a concentration at 4 h ([1]; lung, 30 mg/kg i.p., VPC4 + LPS group, read-out: Mean lung concentration) of 576 µM, a concentration at 4 h ([1]; lung, 30 mg/kg i.p., VPC4 group, read-out: Mean lung concentration) of 490 µM and a concentration at 4 h ([1]; whole blood, 30 mg/kg i.p. with LPS 1 mg/kg, cotreatment group, read-out: Mean whole blood concentration) of 17.4 µM. For the same molecule, the concentration at 4 h ([1]; whole blood, 30 mg/kg i.p., drug-treated group, read-out: Mean whole blood concentration) was 15.8 µM, the “Brain levels relative to blood” value ([1]; mice that received VPC4, 30 mg/kg i.p., 4 h) was “approximately ninefold” and the Tolerability in mice ([2]; 30 mg/kg i.p.) was “well-tolerated”. The Absolute lymphocyte counts ([2]; 30 mg/kg i.p., 4 h, between treatment groups) was “no significant differences”, the “Plasma IL-10” value ([2]; LPS 1 mg/kg + 30 mg/kg i.p., 4 h) was “higher levels” and the “Plasma IFNγ” value [2, 3] was “significantly suppressed”. For the same molecule, the “Plasma IL-1β” value [2, 3] was “significantly suppressed”, the “Plasma TNFα” value [2, 3] was “significantly suppressed” and the “Brain expression of CCL4” value [2, 4] was “significantly suppressed”. The “Brain expression of IL-1β” value [2, 4] was “significantly suppressed”, the “Brain expression of IL-6” value [2, 4] was “significantly suppressed” and the “Brain expression of TNFα” value [2, 4] was “significantly suppressed”. For the same molecule, the “Lung expression of IL-6” value ([2]; whole-lung qRT-PCR, LPS 1 mg/kg + 30 mg/kg i.p., 4 h, vs LPS) was “non-significantly lower”.
